Laboratory results taken from patent US9212151B2, “Heterocyclic compounds useful for kinase inhibition” (Amitech Therapeutic Solutions, Inc., priority 2010, dated 2015).

Test: MTT cell viability assay, compounds at 5, 1 and 0.2 μM, 48 hours
Assay type: cell-based
Details: human, A549 tumor cells
Procedure: MTT assay is used to determine cell proliferation, percent of viable cells, and cytotoxicity. MTT (3-[4,5-dimethylthiazol-2-yl]2,5-diphenyltetrazolium bromide) is a yellow dye, which can be absorbed by the living cells and be reduced to purplish blue formazan crystals by succinate tetrazolium reductase in mitochondria. Formazan formation can therefore be used to assess and determine the survival rate of cells.
Tumor cells (A549) were plated at 2500 cells/well of a 96-well plate in complete growth medium (DMEM+10% FBS, antibiotic/antimycotic, fungizone, L-glutamine, sodium pyruvate, and non-essential amino acids). The cells were allowed to grow overnight. After cell proliferation, the cells were washed and re-suspended in fresh culture medium and placed in 96 well plates.
To each of the 96 well plates containing A549 and a control, 5, 1, and 0.2 μM of the exemplary compounds 1-200 were add. The 96 well plates were incubated for 48 hours. Cell viability was measured by adding MTT (Sigma) at 5 mg/ml for 4 h to the cells and then removing the medium and resuspending each well in 50 μl DMSO to solubilize the crystals. The 96-well plates were read on a plate-scanning spectrophotometer (BioTek) at an absorbance of […]. The survival rate of cells was calculated based on the measurement of absorption at the 570 nm wavelength by enzyme immunoassay analyzer.

SMILES	viability at 48 h, 0.2 µM (0.2 μM) [%]	viability at 48 h, 1 µM (1 μM) [%]	viability at 48 h, 5 µM (5 μM) [%]	viability at 48 h, 0.2 µM (0.2 μM compound) [%]	viability at 48 h, 1 µM (1 μM compound) [%]	viability at 48 h, 5 µM (5 μM compound) [%]
Cc1cc(Oc2ccc(-c3nnc(Nc4cccc(C(F)(F)F)c4)[nH]3)cc2)c2ccccc2n1 [Compound 158]	> 70	> 70	50 to 70	–	–	–
FC(F)(F)c1cccc(Nc2nnc(-c3cccc(Oc4ccnc5[nH]ccc45)c3)[nH]2)c1 [Compound 85]	> 70	> 70	50 to 70	–	–	–
FC(F)(F)c1cccc(Nc2nnc(-c3cccc(Oc4ccncc4C(F)(F)F)c3)[nH]2)c1 [Compound 20]	> 70	> 70	50 to 70	–	–	–
Cc1cc(Oc2ccc(-c3nnc(Nc4cccc(C(F)(F)F)c4)[nH]3)cc2)ccn1 [Compound 74]	> 70	< 50	< 50	–	–	–
CSc1nc(N)cc(Oc2ccc(Nc3nnc(-c4cccc(Cl)c4)[nH]3)cc2)n1 [Compound 180]	> 70	> 70	50 to 70	–	–	–
CSc1nc(N)cc(Oc2ccc(-c3nnc(Nc4cccc(C#N)c4)[nH]3)cc2)n1 [Compound 128]	> 70	> 70	> 70	–	–	–
Cc1ccc(-c2nnc(Nc3cccc(C(F)(F)F)c3)[nH]2)cc1Oc1ccncc1 [Compound 178]	50 to 70	< 50	< 50	–	–	–
COCCOCCSc1nc(N)cc(Oc2ccc(-c3nnc(Nc4cccc(C(F)(F)F)c4)[nH]3)cc2)n1 [Compound 113]	> 70	> 70	–	–	–	–
Nc1cc(Oc2ccc(-c3nnc(Nc4cccc(C(F)(F)F)c4)[nH]3)cc2)ccn1 [Compound 4]	> 70	> 70	50 to 70	–	–	–
COc1cc(Oc2ccc(-c3nnc(Nc4cccc(C(F)(F)F)c4)[nH]3)cc2)ccn1 [Compound 73]	> 70	> 70	< 50	–	–	–
COc1nc(Oc2cccc(-c3nnc(Nc4cccc(C(F)(F)F)c4)[nH]3)c2)c2cc[nH]c2n1 [Compound 92]	> 70	> 70	> 70	–	–	–
CSc1nc(N)cc(Oc2ccc(-c3nnc(Nc4cccc(C(F)(F)F)c4)[nH]3)c(Cl)c2)n1 [Compound 112]	> 70	> 70	> 70	–	–	–
FC(F)(F)c1cccc(-c2nnc(Nc3ccc(Oc4cccnc4)cc3)[nH]2)c1 [Compound 174]	> 70	> 70	> 70	–	–	–
CSc1nc(N)cc(Sc2ccc(-c3nnc(Nc4cccc(C(F)(F)F)c4)[nH]3)cc2)n1 [Compound 119]	> 70	< 50	< 50	–	–	–
FC(F)(F)c1cccc(Nc2nnc(-c3ccc(Oc4cc(Cl)ccn4)cc3)[nH]2)c1 [Compound 5]	> 70	> 70	> 70	–	–	–
COc1ccc2c(Oc3cccc(-c4nnc(Nc5cccc(C(F)(F)F)c5)[nH]4)c3)ccnc2c1 [Compound 22]	> 70	> 70	> 70	–	–	–
FC(F)(F)c1cccc(Nc2nnc(-c3ccc(Oc4ccnc5cc(Cl)ccc45)cc3)[nH]2)c1 [Compound 150]	> 70	> 70	> 70	–	–	–
COc1ccc2c(Oc3ccc(-c4cnc(Nc5cccc(C(F)(F)F)c5)[nH]4)cc3)ccnc2c1 [Compound 200]	–	–	–	> 70	> 70	> 70
CSc1nc(N)cc(Oc2cc(-c3nnc(Nc4cccc(C(F)(F)F)c4)[nH]3)ccc2C)n1 [Compound 179]	> 70	> 70	50 to 70	–	–	–
CSc1nc(N)cc(Oc2ccc(-c3nnc(Nc4cccc(C)c4C)[nH]3)cc2)n1 [Compound 126]	< 50	< 50	< 50	–	–	–
FC(F)(F)c1cccc(Nc2nnc(-c3ccc(Oc4ccnc5ccccc45)cc3)[nH]2)c1 [Compound 12]	> 70	> 70	50 to 70	–	–	–
FC(F)(F)c1cccc(Nc2nnc(-c3ccc(Oc4ccncc4)cc3)[nH]2)c1 [Compound 3]	> 70	50 to 70	< 50	–	–	–
NS(=O)(=O)c1cnccc1Oc1ccc(-c2nnc(Nc3cccc(C(F)(F)F)c3)o2)cc1 [Compound 31]	> 70	> 70	> 70	–	–	–

SMILES	viability at 48 h, 0.2 µM (0.2 μM) [%]	viability at 48 h, 1 µM (1 μM) [%]	viability at 48 h, 5 µM (5 μM) [%]	viability at 48 h, 0.2 µM (0.2 μM compound) [%]	viability at 48 h, 1 µM (1 μM compound) [%]	viability at 48 h, 5 µM (5 μM compound) [%]
CSc1nc(N)cc(Oc2ccc(-c3nnc(Nc4cc(C(C)(C)C)on4)[nH]3)cc2)n1 [Compound 129]	> 70	> 70	> 70	–	–	–
FC(F)(F)c1cccc(Nc2nnc(-c3ccc(Oc4ncnc5[nH]ccc45)cc3)o2)c1 [Compound 32]	> 70	> 70	> 70	–	–	–
N#Cc1ccc2c(Oc3ccc(-c4nnc(Nc5cccc(C(F)(F)F)c5)[nH]4)cc3)ccnc2c1 [Compound 189]	> 70	> 70	> 70	–	–	–
FC(F)(F)c1cccc(Nc2nnc(-c3cccc(Oc4ccnc5ccccc45)c3)[nH]2)c1 [Compound 23]	> 70	> 70	> 70	–	–	–
FC(F)(F)c1cccc(Nc2nnc(-c3cccc(Oc4ccnc5cc(Cl)ccc45)c3)[nH]2)c1 [Compound 167]	> 70	> 70	> 70	–	–	–
Cc1ccc2nccc(Oc3ccc(-c4nnc(Nc5cccc(C(F)(F)F)c5)[nH]4)cc3)c2c1 [Compound 162]	> 70	> 70	> 70	–	–	–
CSc1nc(N)cc(Oc2cccc(-c3nnc(Nc4cccc(C(F)(F)F)c4)s3)c2)n1 [Compound 48]	> 70	> 70	> 70	–	–	–
O=[N+]([O-])c1cc(F)cc(Oc2ccc(-c3nnc(Nc4cccc(C(F)(F)F)c4)[nH]3)cc2)c1 [Compound 147]	> 70	> 70	50 to 70	–	–	–
Cc1nc(N)cc(Oc2cccc(-c3nnc(Nc4cccc(C(F)(F)F)c4)[nH]3)c2)n1 [Compound 100]	> 70	> 70	> 70	–	–	–
COc1ccc2c(Oc3ccc(-c4nnc(Nc5cccc(C(F)(F)F)c5)s4)cc3)ccnc2c1 [Compound 46]	> 70	> 70	< 50	–	–	–
COc1nccc(Oc2ccc(-c3nnc(Nc4cccc(C(F)(F)F)c4)[nH]3)cc2)n1 [Compound 71]	> 70	> 70	50 to 70	–	–	–
CSc1nc(N)cc(Oc2ccc(-c3nnc(Nc4ccc(C)c(C)c4)[nH]3)cc2)n1 [Compound 125]	> 70	> 70	< 50	–	–	–
FC(F)(F)c1cccc(Nc2nnc(-c3ccc(Oc4ccnc5ccccc45)cc3)o2)c1 [Compound 34]	> 70	> 70	> 70	–	–	–
COc1ccc2nccc(Oc3cccc(-c4nnc(Nc5cccc(C(F)(F)F)c5)[nH]4)c3)c2c1 [Compound 191]	> 70	> 70	> 70	–	–	–
Cc1nccc(Oc2ccc(-c3nnc(Nc4cccc(C(F)(F)F)c4)[nH]3)cc2)n1 [Compound 51]	> 70	50 to 70	< 50	–	–	–
COc1cc2ncnc(Oc3cccc(-c4nnc(Nc5cccc(C(F)(F)F)c5)[nH]4)c3)c2cc1OC [Compound 170]	> 70	> 70	> 70	–	–	–
CC(=O)NCCSc1nc(N)cc(Oc2ccc(-c3nnc(Nc4cccc(C(F)(F)F)c4)[nH]3)cc2)n1 [Compound 114]	> 70	> 70	> 70	–	–	–
Cc1nccc(Oc2cccc(-c3nnc(Nc4cccc(C(F)(F)F)c4)[nH]3)c2)n1 [Compound 55]	50 to 70	50 to 70	< 50	–	–	–
Nc1cc(Oc2cccc(-c3nnc(Nc4cccc(C(F)(F)F)c4)[nH]3)c2)ncn1 [Compound 16]	> 70	> 70	> 70	–	–	–
FC(F)(F)c1cccc(Nc2nnc(-c3cccc(Oc4ncnc5[nH]ccc45)c3)[nH]2)c1 [Compound 21]	> 70	> 70	> 70	–	–	–
FC(F)(F)c1cccc(Nc2nnc(-c3ccc(Oc4nccc5ccccc45)cc3)[nH]2)c1 [Compound 149]	> 70	> 70	50 to 70	–	–	–
Nc1cc(Oc2ccc(-c3nnc(Nc4cccc(C(F)(F)F)c4)[nH]3)cc2)ncn1 [Compound 2]	> 70	> 70	> 70	–	–	–
